According to article PMC5224920, “Assessing the mechanism and therapeutic potential of modulators of the human Mediator complex-associated protein kinases” (eLife, 2016):

Test system: 12 single or co-culture in vitro tissue models of primary cells
Experiment: Culture/co-culture cell model panel, extracellular biomarkers (DiscoveRx); for CCL2/MCP-1: reference of the scale not given here; for CD141/Thrombomodulin: reference of the scale not given here; for CD142/Tissue Factor: reference of the scale not given here; for CXCL8/IL-8: reference of the scale not given here; for CXCL9/MIG: reference of the scale not given here; for M-CSF: reference of the scale not given here; for SRB: reference of the scale not given here
Type: cell-based, human
[1] = /HDFNo unstimulated fibroblasts, 1.00E0 nM
[2] = /HDFNo unstimulated fibroblasts, 1.00E1 nM
[3] = /HDFNo unstimulated fibroblasts, 1.00E2 nM
[4] = /HDFNo unstimulated fibroblasts, 1.00E3 nM
[5] = /HDFNo unstimulated fibroblasts, 1.00E4 nM

Cn1ncc2cc(-c3cnc(N)c(Cl)c3N3CCC4(CCNC4=O)CC3)ccc21 [CMPD 3]
CCL2/MCP-1 (3C, 1.00E0 nM): 0.030 | CD54/ICAM-1 (3C, 1.00E0 nM): -0.007 | CD87/uPAR (3C, 1.00E0 nM): -0.138 | CD106/VCAM-1 (3C, 1.00E0 nM): 0.033 | CD141/Thrombomodulin (3C, 1.00E0 nM): 0.044 | CD142/Tissue Factor (3C, 1.00E0 nM): 0.040 | CXCL8/IL-8 (3C, 1.00E0 nM): 0.00749 | CXCL9/MIG (3C, 1.00E0 nM): 0.008 | HLA-DR (3C, 1.00E0 nM): -0.007 | Proliferation (3C, 1.00E0 nM): -0.065 | SRB (3C, 1.00E0 nM): -0.049 | CCL2/MCP-1 (3C, 1.00E1 nM): -0.022 | CD54/ICAM-1 (3C, 1.00E1 nM): -0.036 | CD87/uPAR (3C, 1.00E1 nM): -0.247 | CD106/VCAM-1 (3C, 1.00E1 nM): 0.039 | CD141/Thrombomodulin (3C, 1.00E1 nM): 0.072 | CD142/Tissue Factor (3C, 1.00E1 nM): 0.133 | CXCL8/IL-8 (3C, 1.00E1 nM): -0.095 | CXCL9/MIG (3C, 1.00E1 nM): -0.00373 | HLA-DR (3C, 1.00E1 nM): -0.076 | Proliferation (3C, 1.00E1 nM): -0.054 | SRB (3C, 1.00E1 nM): -0.076 | CCL2/MCP-1 (3C, 1.00E2 nM): -0.124 | CD54/ICAM-1 (3C, 1.00E2 nM): -0.048 | CD87/uPAR (3C, 1.00E2 nM): -0.349 | CD106/VCAM-1 (3C, 1.00E2 nM): 0.034 | CD141/Thrombomodulin (3C, 1.00E2 nM): 0.056 | CD142/Tissue Factor (3C, 1.00E2 nM): 0.139 | CXCL8/IL-8 (3C, 1.00E2 nM): -0.180 | CXCL9/MIG (3C, 1.00E2 nM): -0.007 | HLA-DR (3C, 1.00E2 nM): -0.144 | Proliferation (3C, 1.00E2 nM): -0.088 | SRB (3C, 1.00E2 nM): -0.094 | CCL2/MCP-1 (3C, 1.00E3 nM): -0.168 | CD54/ICAM-1 (3C, 1.00E3 nM): -0.045 | CD87/uPAR (3C, 1.00E3 nM): -0.370 | CD106/VCAM-1 (3C, 1.00E3 nM): 0.037 | CD141/Thrombomodulin (3C, 1.00E3 nM): 0.050 | CD142/Tissue Factor (3C, 1.00E3 nM): 0.150 | CXCL8/IL-8 (3C, 1.00E3 nM): -0.301 | CXCL9/MIG (3C, 1.00E3 nM): -0.026 | HLA-DR (3C, 1.00E3 nM): -0.148 | Proliferation (3C, 1.00E3 nM): -0.102 | SRB (3C, 1.00E3 nM): -0.099 | CCL2/MCP-1 (3C, 1.00E4 nM): -0.253 | CD54/ICAM-1 (3C, 1.00E4 nM): -0.033 | CD87/uPAR (3C, 1.00E4 nM): -0.407 | CD106/VCAM-1 (3C, 1.00E4 nM): 0.036 | CD141/Thrombomodulin (3C, 1.00E4 nM): 0.036 | CD142/Tissue Factor (3C, 1.00E4 nM): 0.224 | CXCL8/IL-8 (3C, 1.00E4 nM): -0.302 | CXCL9/MIG (3C, 1.00E4 nM): -0.020 | HLA-DR (3C, 1.00E4 nM): -0.278 | Proliferation (3C, 1.00E4 nM): -0.404 | SRB (3C, 1.00E4 nM): -0.222 | CCL2/MCP-1 (/HDF3CT, 1.00E0 nM): -0.010 | CD54/ICAM-1 (/HDF3CT, 1.00E0 nM): -0.008 | CD106/VCAM-1 (/HDF3CT, 1.00E0 nM): 0.026 | CXCL8/IL-8 (/HDF3CT, 1.00E0 nM): -0.039 | CXCL9/MIG (/HDF3CT, 1.00E0 nM): 0.020 | CXCL10/IP-10 (/HDF3CT, 1.00E0 nM): 0.003 | Collagen I (/HDF3CT, 1.00E0 nM): 0.036 | M-CSF (/HDF3CT, 1.00E0 nM): 0.008 | MMP-1 (/HDF3CT, 1.00E0 nM): 0.097 | PAI-I (/HDF3CT, 1.00E0 nM): 0.039 | SRB (/HDF3CT, 1.00E0 nM): 0.007 | TIMP-2 (/HDF3CT, 1.00E0 nM): 0.070 | CCL2/MCP-1 (/HDF3CT, 1.00E1 nM): -0.048 | CD54/ICAM-1 (/HDF3CT, 1.00E1 nM): -0.062 | CD106/VCAM-1 (/HDF3CT, 1.00E1 nM): 0.0026 | CXCL8/IL-8 (/HDF3CT, 1.00E1 nM): -0.028 | CXCL9/MIG (/HDF3CT, 1.00E1 nM): 0.010 | CXCL10/IP-10 (/HDF3CT, 1.00E1 nM): 0.017 | Collagen I (/HDF3CT, 1.00E1 nM): 0.021 | M-CSF (/HDF3CT, 1.00E1 nM): -0.050 | MMP-1 (/HDF3CT, 1.00E1 nM): 0.095 | PAI-I (/HDF3CT, 1.00E1 nM): -0.027 | SRB (/HDF3CT, 1.00E1 nM): -0.007 | TIMP-2 (/HDF3CT, 1.00E1 nM): 0.045 | CCL2/MCP-1 (/HDF3CT, 1.00E2 nM): -0.069 | CD54/ICAM-1 (/HDF3CT, 1.00E2 nM): -0.067 | CD106/VCAM-1 (/HDF3CT, 1.00E2 nM): 0.015 | CXCL8/IL-8 (/HDF3CT, 1.00E2 nM): -0.099 | CXCL9/MIG (/HDF3CT, 1.00E2 nM): -0.022 | CXCL10/IP-10 (/HDF3CT, 1.00E2 nM): 0.012 | Collagen I (/HDF3CT, 1.00E2 nM): 0.00367 | M-CSF (/HDF3CT, 1.00E2 nM): -0.024 | MMP-1 (/HDF3CT, 1.00E2 nM): 0.086 | PAI-I (/HDF3CT, 1.00E2 nM): -0.074 | SRB (/HDF3CT, 1.00E2 nM): -0.023 | TIMP-2 (/HDF3CT, 1.00E2 nM): 0.070 | CCL2/MCP-1 (/HDF3CT, 1.00E3 nM): -0.111 | CD54/ICAM-1 (/HDF3CT, 1.00E3 nM): -0.061 | CD106/VCAM-1 (/HDF3CT, 1.00E3 nM): 0.021 | CXCL8/IL-8 (/HDF3CT, 1.00E3 nM): -0.189 | CXCL9/MIG (/HDF3CT, 1.00E3 nM): -0.040 | CXCL10/IP-10 (/HDF3CT, 1.00E3 nM): 0.00333 | Collagen I (/HDF3CT, 1.00E3 nM): 0.027 | M-CSF (/HDF3CT, 1.00E3 nM): -0.00149 | MMP-1 (/HDF3CT, 1.00E3 nM): 0.040 | PAI-I (/HDF3CT, 1.00E3 nM): -0.123 | SRB (/HDF3CT, 1.00E3 nM): 0.00334 | TIMP-2 (/HDF3CT, 1.00E3 nM): 0.107 | CCL2/MCP-1 (/HDF3CT, 1.00E4 nM): -0.053 | CD54/ICAM-1 (/HDF3CT, 1.00E4 nM): -0.081 | CD106/VCAM-1 (/HDF3CT, 1.00E4 nM): 0.009 | CXCL8/IL-8 (/HDF3CT, 1.00E4 nM): -0.144 | CXCL9/MIG (/HDF3CT, 1.00E4 nM): -0.049 | CXCL10/IP-10 (/HDF3CT, 1.00E4 nM): -0.00029 | Collagen I (/HDF3CT, 1.00E4 nM): 0.010 | M-CSF (/HDF3CT, 1.00E4 nM): -0.092 | MMP-1 (/HDF3CT, 1.00E4 nM): 0.107 | PAI-I (/HDF3CT, 1.00E4 nM): -0.208 | SRB (/HDF3CT, 1.00E4 nM): -0.230 | TIMP-2 (/HDF3CT, 1.00E4 nM): 0.271 | CXCL8/IL-8 [1]: 0.059 | CXCL9/MIG [1]: 0.119 | CXCL10/IP-10 [1]: 0.034 | CXCL11/I-TAC [1]: 0.074 | EGFR [1]: 0.022 | M-CSF [1]: 0.066 | MMP-1 [1]: 0.081 | PAI-I [1]: 0.044 | Proliferation_72hr [1]: -0.013 | SRB [1]: 0.039 | TIMP-1 [1]: 0.047 | TIMP-2 [1]: 0.100 | CXCL8/IL-8 [2]: 0.037 | CXCL9/MIG [2]: 0.058 | CXCL10/IP-10 [2]: 0.054 | CXCL11/I-TAC [2]: -0.002 | EGFR [2]: 0.009 | M-CSF [2]: 0.048 | MMP-1 [2]: 0.040 | PAI-I [2]: -0.042 | Proliferation_72hr [2]: 0.000939 | SRB [2]: 0.011 | TIMP-1 [2]: 0.040 | TIMP-2 [2]: 0.045 | CXCL8/IL-8 [3]: 0.041 | CXCL9/MIG [3]: 0.091 | CXCL10/IP-10 [3]: 0.056 | CXCL11/I-TAC [3]: -0.021 | EGFR [3]: 0.019 | M-CSF [3]: 0.020 | MMP-1 [3]: 0.030 | PAI-I [3]: -0.011 | Proliferation_72hr [3]: 0.020 | SRB [3]: -0.014 | TIMP-1 [3]: -0.015 | TIMP-2 [3]: 0.091 | CXCL8/IL-8 [4]: 0.013 | CXCL9/MIG [4]: 0.053 | CXCL10/IP-10 [4]: 0.0016 | CXCL11/I-TAC [4]: -0.010 | EGFR [4]: 0.012 | M-CSF [4]: -0.000464 | MMP-1 [4]: 0.050 | PAI-I [4]: -0.034 | Proliferation_72hr [4]: 0.048 | SRB [4]: -0.021 | TIMP-1 [4]: 0.010 | TIMP-2 [4]: 0.080 | CXCL8/IL-8 [5]: 0.011 | CXCL9/MIG [5]: -0.074 | CXCL10/IP-10 [5]: -0.076 | CXCL11/I-TAC [5]: 0.023 | EGFR [5]: 0.045 | M-CSF [5]: 0.010 | MMP-1 [5]: 0.054 | PAI-I [5]: -0.028 | Proliferation_72hr [5]: 0.002 | SRB [5]: -0.00187 | TIMP-1 [5]: -0.007 | TIMP-2 [5]: 0.202 | CCL2/MCP-1 (/HDFNo, 1.00E0 nM): 0.028 | CD54/ICAM-1 (/HDFNo, 1.00E0 nM): 0.066 | CD106/VCAM-1 (/HDFNo, 1.00E0 nM): 0.114 | Collagen I (/HDFNo, 1.00E0 nM): 0.082 | Collagen III (/HDFNo, 1.00E0 nM): 0.065 | CCL2/MCP-1 (/HDFNo, 1.00E1 nM): 0.027 | CD54/ICAM-1 (/HDFNo, 1.00E1 nM): 0.074 | CD106/VCAM-1 (/HDFNo, 1.00E1 nM): 0.048 | Collagen I (/HDFNo, 1.00E1 nM): 0.041 | Collagen III (/HDFNo, 1.00E1 nM): 0.032 | CCL2/MCP-1 (/HDFNo, 1.00E2 nM): 0.042 | CD54/ICAM-1 (/HDFNo, 1.00E2 nM): -0.013 | CD106/VCAM-1 (/HDFNo, 1.00E2 nM): 0.065 | Collagen I (/HDFNo, 1.00E2 nM): 0.061 | Collagen III (/HDFNo, 1.00E2 nM): 0.079 | CCL2/MCP-1 (/HDFNo, 1.00E3 nM): 0.025 | CD54/ICAM-1 (/HDFNo, 1.00E3 nM): 0.014 | CD106/VCAM-1 (/HDFNo, 1.00E3 nM): 0.026 | Collagen I (/HDFNo, 1.00E3 nM): 0.099 | Collagen III (/HDFNo, 1.00E3 nM): 0.101
